The values below come from patent US9950071B2, “Hybrid anticancer prodrug simultaneously producing cinnamaldehyde and quinone methide and method for preparing same” (INDUSTRIAL COOPERATION FOUNDATION CHONBUK NATIONAL …, priority 2014, dated 2018).

The subject of data set [1] is xenograft mouse model of DU145 and SW620. Briefly: growth and size of tumor in xenograft model. Type of data set: in vivo. The following applies: for growth inhibition effect of the tumor / size of the tumor: 2 mg/kg through tail vein every 3 days. The procedure: In order to verify in vivo anticancer activity of the QCA, a tumor in a xenograft model was observed. First, cancer cells were injected to a side hypodermic tissue of mouse by using a xenograft mouse model of DU145 and SW620 and when the tumor after cell transplantation started to be touched small, cinnamaldehyde, Q1, and cinnamaldehyde and Q1, or QCA was administrated by 2 mg/kg though tail vein every 3 days, and then the size of the tumor in the mouse was measured and the result thereof was illustrated in FIG. 17. Further, different amounts of QCA were administrated to the mouse having the tumor and in order to compare the effect thereof, 2 mg/kg of camptotethin (CPT) as an anticancer agent which was commercialized was administrated in other mouse, and then the size of the tumor of the mouse was measured and the result thereof was illustrated in FIG. 18.

Data set [2] has as its system DU145, SW620 and NIH3T3 cells. Put plainly: cytotoxicity by MTT assay. Type of data set: cell-based. The following applies: 24 hr treatment, various amounts. As for the experimental part:
The cytotoxities of the QCA prepared in Example 1 and the QBCA prepared in Example 2 were measured by an MTT assay. In detail, a prostate cancer cell line DU145, a colorectal cancer cell line SW620, and a fibroblast cell NIH3T3 were inoculated in a 24-well plate with the density of 1×10^5 cells/well, respectively, and cultured for 24 hr to reach up to 90% confluency. The cells were treated with various amounts of QCA, QBCA, Q1, or cinnamaldehyde and cultured for 24 hr. 100 μL of the MTT solution was put each well and the cells were cultured for 4 hr. The generated formazan crystals were dissolved in 200 μL of dimethylsulfoxide. After 10 min of the culture, an absorbance at 570 nm was measured by using a micro plate reader (Biotek Instruments, Winooski, Vt.). A cell survival rate was determined by comparing absorbances of cells in a control group and QCA or QBCA-treated cells, and the results were illustrated in FIGS. 9 and 10.

The nature of data set [3]: QCA structure after hydrolysis in tumor environment (1H NMR). Type of data set: physicochemical. As for the experimental part:
In a tumor environment, in order to verify a structure of the QCA triggered by double stimulus, the QCA was cultured for 24 hr at pH 5.5 and verified through ^1H NMR and the structure of the QCA was illustrated in FIG. 5.

The subject of data set [4] is colorectal cancer cell line SW620. Briefly: cell GSH level (Ellman's reagent). It counts as cell-based. As for the experimental part:
(§1) A prostate cancer cell line DU145, a colorectal cancer cell line SW620, and a fibroblast cell NIH3T3 were inoculated in a 6-well plate (5×10^5/well) to reach 80% confluency. The cell lines were treated with various compounds for 1.5 hr at 37° C. and then, cells were obtained and washed with PBS. Thereafter, the cells were lysed in ice in 40 μL of a Triton X-100 lysis buffer solution. After 20 min, the lysate was centrifuged with 9,000 g and 10 μL of a supernatant was mixed with 50 μL of an Ellman's reagent (0.5 mM DTNB). The amount of GSH was quantified by measuring an absorbance at 405 nm using a microplate reader (Biotek Instruments, Winooski, Vt.). In the treated cells, a percentage of the GSH content was compared with the base GSH content measured in untreated cells, and the result was illustrated in FIG. 7.

For data set [5], the system named is fibroblast cell NIH3T3. Put plainly: cell GSH level (Ellman's reagent). It counts as cell-based. The following applies: NIH3T3, 1.5 hr at 37° C., compared with untreated cells. The procedure:
as §1

Data set [6] deals with prostate cancer cell line DU145. Briefly: cell GSH level (Ellman's reagent). Type of data set: cell-based. As for the experimental part: as §1
The test system is the same in data set [7]. Briefly: generation of reactive oxygen species by flow cytometry (DCFH-DA). Type of data set: cell-based. The following applies: DU145, treated 12 hr, compared with cinnamaldehyde. As for the experimental part: The prostate cancer cell line DU145 (4×10^5) was inoculated in a 24-well culture plate and cultured for 24 hr, and treated with cinnamaldehyde or QCA for 12 hr. Cells were washed with a new medium twice and resuspended in a 1× binding buffer at a concentration of 1×10^5 cells/mL. 100 μL of the cell suspension was transferred to 5 mL of a culture tube and added with 5 μM of 2′,7′-dichlorofluorescein diacetate (DCFH-DA) and softly mixed. The cells were dark-cultured for 15 min at room temperature and added with 400 μL of the 1× binding buffer. The stained cells were measured by using a flow cytometry (FACS Caliber, Becton Dickinson, San Jose, Calif.) and the result was illustrated in FIG. 8. A total of 1.5×10^4 cells per sample were analyzed.

Data set [8] deals with procaspase-3 and PARP-1 in DU145 cells. Put plainly: immunoblot analysis. As to conditions: DU145, 8 hr, various concentrations. It counts as cell-based. The procedure:
(§2) The prostate cancer cell line DU145 and the colorectal cancer cell line SW620 (1×10^6/well) were treated with cinnamaldehyde or QCA for 8 hr at various concentrations and washed with new PBS twice. Proteins were extracted from the cells by using a lysis buffer solution. Electrophoresis was performed by using […] of a cell lysate in a […] and the proteins were transferred to a PVDF membrane (Millipore, Billerica, Mass.). A blot was cultured together with a PARP monoclonal antibody (Santa Cruz Biotechnology, Dallas, Tex.) or caspase-3 (Santa Cruz Biotechnology, Dallas, Tex.) and a HRP-coupled anti-goat antibody (Millipore, Billerica, Mass.) was used as a secondary antibody. An immunoblot signal was verified by using a chemiluminescent reagent (Pierce, Rockford, Ill.) of SuperSignal Ultra and the result thereof was illustrated in FIGS. 11 and 12.

Data set [9] relates to procaspase-3 and PARP-1 in SW620 cells. Put plainly: immunoblot analysis. Type of data set: cell-based. The following applies: SW620, 8 hr, various concentrations. As for the experimental part:
as §2

The subject of data set [10] is SW620 cells. Put plainly: DNA fragmentation assay (electrophoresis). It counts as cell-based. The procedure: In order to verify an effect of the QCA on the DNA fragments, a DNA fragmentation assay of SW620 was performed. First, the DU145 and SW620 cells were cultured for 24 hr and then treated with 100 μm of cinnamaldehyde, 100 μm of Q1 (4-(1,3,2-dioxaborinan-2-yl)benzyl carbonate, and generating only quinone methide), and 25 μm, 50 μm, 100 μm of the QCA to isolate the DNA and the fragmentation of the nucleosomal DNA was observed by electrophoresis, and the result thereof was illustrated in FIG. 13.
Further, hereinabove, the DNA fragments of the SW620 treated with 100 μm of the QCA were analyzed over time and the result thereof was illustrated in FIG. 14.

The subject of data set [11] is DU145 cells. Put plainly: flow cytometry with Annexin V-FITC and propidium iodide. Type of data set: cell-based. The following applies: DU145, treated 24 hr, compared with cinnamaldehyde and Q1. The procedure:
(§3) Further, in order to support the result of the DNA fragmentation assay, the DU145 and SW620 cells were cultured for 24 hr and treated with cinnamaldehyde, Q1 or QCA for 24 hr and then flow cytometry was performed by using Annexin V-FITC as a marker of apoptosis and propidium iodide (PI) as a marker for […], and the result was illustrated in FIGS. 15 and 16.

Data set [12] deals with SW620 cells. The description is as above. It counts as cell-based. As to conditions: SW620, treated 24 hr, compared with cinnamaldehyde and Q1. As for the experimental part:
as §3

In data set [13] the test system is tumor lysate. Briefly: tumor lysate analysis by LC-MS (generation of QM and cinnamaldehyde). Type of data set: in vivo, mouse. As for the experimental part:
In the tumor, in order to verify whether to generate the QM and the cinnamaldehyde in the tumor, a tumor lysate was analyzed by LC-MS after 22 days and the result thereof was illustrated in FIG. 19.

The test system of data set [14] is SW620 tumor mouse model. Put plainly: histologic examination of tumor (H&E and TUNEL staining). It counts as in vivo. As to conditions: 21 days, once per three days. The procedure: In order to verify the apoptosis induced by the QCA, in a SW620 tumor mouse model, H&E staining of the tumor was performed after administrating cinnamaldehyde, Q1, the cinnamaldehyde and the Q1, or QCA for 21 days once per three days, and the result thereof was illustrated in FIG. 20. Further, terminal deoxynucleotidyl transferase dUTP nick end labeling (TUNEL) staining of the tumor was performed by the same method, and the result thereof was illustrated in FIG. 21.

The subject of data set [15] is liver and heart tissues. Put plainly: organ damage, H&E and TUNEL staining of liver and heart tissues. It counts as in vivo, mouse. As to conditions: 21 days, once per three days.
A short description of data set [16]: toxicity of QCA: ALT evaluation and H&E staining of liver and heart. Type of data set: in vivo. As to conditions: 2 mg/kg, 10 days, once per 2 days. The procedure:
In order to verify the stability of the QCA, after 2 mg/kg of the QCA was injected to the mouse for 10 days once per 2 days, alanine transaminase (ALT) evaluation and H&E staining of the liver and heart tissues were performed, and the result thereof was illustrated in FIGS. 24 and 25.

For data set [17] the following is noted: in vivo; cited from earlier work.

With “4-(1,3,2-dioxaborinan-2-yl)benzyl carbonate [Example Q1, reference compound]”, in [1], the “growth inhibition effect of the tumor / size of the tumor” value is “slight”.
Regarding `CC1(COC(=O)OCc2ccc(B3OCCCO3)cc2)COC(/C=C/c2ccccc2OC(=O)c2ccccc2)OC1` (stereo not shown) [QBCA, 4-(1,3,2-dioxaborinan-2-yl)benzyl ((5-methyl-2-(2-benzoyloxyphenyl)vinyl-1,3-dioxan-5-yl)methyl)carbonate], the “cytotoxicity (cell survival rate, MTT)” value in [2] is “increased according to a concentration”.
Regarding `CC1(COC(=O)OCc2ccc(B3OCCCO3)cc2)COC(/C=C/c2ccccc2)OC1` (stereo not shown) [QCA, 4-(1,3,2-dioxaborinan-2-yl)benzyl ((5-methyl-2-styryl-1,3-dioxan-5-yl)methyl)carbonate], the “boronate oxidation and formation of hydroxybenzyl alcohol (1H NMR)” value in [3] (H2O2-mediated, peaks 6.9 and 6.4 ppm) was “formation of hydroxybenzyl alcohol and oxidation of H2O2-mediated boronate were verified”. The “release of cinnamaldehyde by acetal bond cleavage (1H NMR)” value in data set [3] (cultured 24 hr at pH 5.5, aldehyde peak 9.4 ppm) is reported as “cinnamaldehyde generated while an acetal bond was broken”. For the same molecule, the “GSH level at 50 μM” value was “Most of GSH was depleted” in data set [4] (SW620, 50 μM) and “Most of GSH was depleted” in [6] (DU145, 50 μM). Besides, the “further reduction of the GSH at 100 μM” value was “not further observed” in data set [4] (SW620, 100 μM) and “not further observed” in data set [6] (DU145, 100 μM). Moreover, the GSH level result is reported as “significantly reduced in a dose-dependent manner” in [4] (SW620, 1.5 hr at 37° C., compared with untreated cells); “no effect” in data set [5]; “significantly reduced in a dose-dependent manner” in data set [6] (DU145, 1.5 hr at 37° C., compared with untreated cells). For the same molecule, the “apoptosis / cell toxicity by ROS generation (FIG. 8)” value in data set [7] is reported as “much higher cell toxicity than the cinnamaldehyde”. For the same molecule, the “cytotoxicity (cell survival rate, MTT)” value in data set [2] is recorded as “increased according to a concentration”. Moreover, the “expression of PARP-1” value in data set [8] and in data set [9] was “concentration-dependently reduced” throughout. The “expression of procaspase-3” value in data set [8] and in [9] was “concentration-dependently reduced” each time. Moreover, the “amount of the DNA fragments over time” value in data set [10] (SW620, 100 μm QCA, over time) is “gradually increased in a concentration and time-dependent manner”. Besides, the “DNA fragments (nucleosomal DNA ladder)” value in data set [10] (SW620, QCA 25, 50, 100 μm vs 100 μm cinnamaldehyde and 100 μm Q1) is “more DNA fragments than the cinnamaldehyde and the Q1”. The “apoptosis (Annexin V / PI)” value in data set [11] was “faster apoptosis than the cinnamaldehyde and Q1-treated cells”; in [12], “faster apoptosis than the cinnamaldehyde and Q1-treated cells”. Moreover, the “growth inhibition effect of the tumor / size of the tumor” value in data set [1] is “significantly smaller size of the tumor”. The “anticancer activity (size of the tumor)” value was “a different anticancer activity was not shown” in [1] (QCA 1 mg/kg or less) and “prominent anticancer activity” in data set [1] (QCA 2 mg/kg, compared with 2 mg/kg CPT). Further, the “QM and cinnamaldehyde in the liver” value in [13] (liver, after 22 days) is on record as “not detected”. Moreover, the “GSH value in tumor lower than the tumor of the untreated mouse” value in data set [13] (tumor lysate after 22 days) is given as “up to 38%”. Further, the “generation of cinnamaldehyde in the tumor” value in [13] (tumor lysate after 22 days, new peak same as cinnamaldehyde treatment) is “cinnamaldehyde was generated”. In addition, the “apoptosis in tumor tissue (H&E, TUNEL)” value in data set [14] is reported as “apoptosis of no-nuclear cells was widely shown”. Moreover, the “organ damage (liver and heart, H&E and TUNEL)” value in data set [15] is on record as “did not induce a particular organ damage”. In addition, in [16], the “evidence of toxicity accumulated in the liver and the heart (H&E)” value was “not observed”. Moreover, in data set [16], the “serum ALT level compared with the untreated mouse” value is “a little difference”.
Regarding `O=CC=Cc1ccccc1` [cinnamaldehyde], the “change after culture at neutral pH without H2O2” value in [3] (72 hr, neutral pH, without H2O2) is recorded as “any change was not observed”. In data set [1], the “growth inhibition effect of the tumor / size of the tumor” value is recorded as “slight”. The half-life result in [17] is reported as “less than 1.5 hr”.
